Experimental findings from patent publication US20220402950A1, “SUBSTITUTED BENZIMIDAZOLES AS PAD4 INHIBITORS” (BRISTOL-MYERS SQUIBB COMPANY, priority 2018, published 2022) are described below.

In general, IC50 refers to the midpoint of a concentration-inhibition curve.

In the first test the target is human PAD4 (hPAD4) (Homo sapiens, UniProt Q9UM07). Description: RFMS Human PAD4 Functional Assay. Type of test: biochemical. The conditions noted are these: hPAD4 RFMS IC50, human PAD4, rapid-fire mass spectrum (RFMS) assay; 5 nM hPAD4, 250 μM BAEE. In outline: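 RapidFire ESI-MS quantification, normalised to a modified-citrulline internal standard, after phenyl glyoxal (final 4 mM) derivatisation of the TCA-quenched reaction. The enzyme (10 nM) sat 30 min with compound (up to 50 μM final) before 500 μM BAEE (as added) started a 90 min, 37 °C reaction. Buffer: HEPES pH 7.5, 50 μM calcium, 5 μM TPEN.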
Sequence of human PAD4 (hPAD4) (Q9UM07 whole entry): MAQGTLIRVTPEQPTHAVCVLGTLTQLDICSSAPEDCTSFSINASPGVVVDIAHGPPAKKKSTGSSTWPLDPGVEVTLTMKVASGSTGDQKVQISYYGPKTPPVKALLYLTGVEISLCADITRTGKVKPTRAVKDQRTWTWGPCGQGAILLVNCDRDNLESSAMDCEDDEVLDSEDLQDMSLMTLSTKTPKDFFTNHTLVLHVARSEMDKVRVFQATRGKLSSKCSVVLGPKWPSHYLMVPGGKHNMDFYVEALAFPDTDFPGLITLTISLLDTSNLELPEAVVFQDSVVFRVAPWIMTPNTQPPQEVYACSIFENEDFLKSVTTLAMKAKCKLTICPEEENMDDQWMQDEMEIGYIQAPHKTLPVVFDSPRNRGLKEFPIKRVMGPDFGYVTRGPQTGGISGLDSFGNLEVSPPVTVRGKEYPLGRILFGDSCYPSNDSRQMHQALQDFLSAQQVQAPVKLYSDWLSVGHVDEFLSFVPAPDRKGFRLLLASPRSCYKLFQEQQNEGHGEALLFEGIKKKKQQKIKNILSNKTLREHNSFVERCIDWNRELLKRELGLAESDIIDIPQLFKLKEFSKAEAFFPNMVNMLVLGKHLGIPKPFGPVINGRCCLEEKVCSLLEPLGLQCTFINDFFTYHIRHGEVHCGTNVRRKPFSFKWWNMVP
For the compound `COc1cc(C(=O)N2C[C@H]3CC[C@@H]2[C@@H]3N)cc2nc(-c3cc4cccc(CCc5c(C)n[nH]c5C)c4n3CC3CC3)n(C)c12` [Example 33, (1R,4R,7R)-2-{2-[1-(cyclopropylmethyl)-7-[2-(3,5-dimethyl-1H-pyrazol-4-yl)ethyl]-1H-indol-2-yl]-7-methoxy-1-methyl-1H-1,3-benzodiazole-5-carbonyl}-2-azabicyclo[2.2.1]heptan-7-amine], 129 nM corresponded to half-maximal inhibition (IC50).
The same measure, in the same setting: the same measure for `COc1cc(C(=O)N2C[C@H]3CC[C@@H]2[C@@H]3N)cc2nc(-c3cc4cccc(C5CCCOC5)c4n3CC3CC3)n(C)c12` (stereo partly drawn) [Example 34, (1R,4R,7R)-2-{2-[1-(cyclopropylmethyl)-7-(oxan-3-yl)-1H-indol-2-yl]-7-methoxy-1-methyl-1H-1,3-benzodiazole-5-carbonyl}-2-azabicyclo[2.2.1]heptan-7-amine]: 94 nM; for `COc1cc(C(=O)N2C[C@H]3CC[C@@H]2[C@@H]3N)cc2nc(-c3cc4cccc(CCO)c4n3CC3CC3)n(C)c12` [Example 35, 2-(2-{5-[(1R,4R,7R)-7-amino-2-azabicyclo[2.2.1]heptane-2-carbonyl]-7-methoxy-1-methyl-1H-1,3-benzodiazol-2-yl}-1-(cyclopropylmethyl)-1H-indol-7-yl)ethan-1-ol]: 102 nM; for `COc1cc(C(=O)N2C[C@H]3CC[C@@H]2[C@@H]3N)cc2nc(-c3cc4cccc(CC5CCCCO5)c4n3CC3CC3)n(C)c12` (stereo partly drawn) [Example 36, (1R,4R,7R)-2-{2-[1-(cyclopropylmethyl)-7-[(oxan-2-yl)methyl]-1H-indol-2-yl]-7-methoxy-1-methyl-1H-1,3-benzodiazole-5-carbonyl}-2-azabicyclo[2.2.1]heptan-7-amine]: 199 nM.
Consider `COc1cc(C(=O)N2C[C@H]3CC[C@@H]2[C@@H]3N)cc2nc(-c3cc4cccc(C5CCCN(C(C)=O)C5)c4n3CC3CC3)n(C)c12` (stereo partly drawn) [Example 38, 1-[3-(2-{5-[(1R,4R,7R)-7-amino-2-azabicyclo[2.2.1]heptane-2-carbonyl]-7-methoxy-1-methyl-1H-1,3-benzodiazol-2-yl}-1-(cyclopropylmethyl)-1H-indol-7-yl)piperidin-1-yl]ethan-1-one], for which half-maximal inhibition (IC50) required 73 nM.
Compound `COc1cc(C(=O)N2C[C@H]3CC[C@@H]2[C@@H]3N)cc2nc(-c3cc4cccc(C5CCCN(C(N)=O)C5)c4n3CC3CC3)n(C)c12` (stereo partly drawn) [Example 39, 3-(2-{5-[(1R,4R,7R)-7-amino-2-azabicyclo[2.2.1]heptane-2-carbonyl]-7-methoxy-1-methyl-1H-1,3-benzodiazol-2-yl}-1-(cyclopropylmethyl)-1H-indol-7-yl)piperidine-1-carboxamide] showed an IC50 of 51 nM.

The same test, now with this note: human PAD4, rapid-fire mass spectrum (RFMS) assay; 5 nM hPAD4, 250 μM BAEE; read-out: hPAD4 RFMS IC50.
Take `COc1cc(C(=O)N2C[C@H]3CC[C@@H]2[C@@H]3N)cc2nc(-c3cc4cccc(C5CN(C(C)=O)C5)c4n3CC3CC3)n(C)c12` [Example 37, 1-(3-(2-(5-((1R,4R,7R)-7-amino-2-azabicyclo[2.2.1]heptane-2-carbonyl)-7-methoxy-1-methyl-1H-benzo[d]imidazol-2-yl)-1-(cyclopropylmethyl)-1H-indol-7-yl)azetidin-1-yl)ethan-1-one]: the IC50 was 26 nM.
Same read-out and setting: the result for `COC(=O)N1CC(c2cccc3cc(-c4nc5cc(C(=O)N6C[C@H]7CC[C@@H]6[C@@H]7N)cc(OC)c5n4C)n(CC4CC4)c23)C1` [Example 40, Methyl 3-(2-(5-((1R,4R,7R)-7-amino-2-azabicyclo[2.2.1]heptane-2-carbonyl)-7-methoxy-1-methyl-1H-benzo[d]imidazol-2-yl)-1-(cyclopropylmethyl)-1H-indol-7-yl)azetidine-1-carboxylate] reads 21 nM.
Still for that read-out and setting: the same measure for `COc1cc(C(=O)N2C[C@H](N)C[C@@H](F)C2)cc2nc(-c3cc4cccc(C5CN(C(C)=O)C5)c4n3CC3CC3)n(C)c12` [Example 41, 1-[3-(2-{5-[(3R,5R)-3-amino-5-fluoropiperidine-1-carbonyl]-7-methoxy-1-methyl-1H-1,3-benzodiazol-2-yl}-1-(cyclopropylmethyl)-1H-indol-7-yl)azetidin-1-yl]ethan-1-one]: 53 nM.
On the same count and under the same terms, the same measure for `COc1cc(C(=O)N2C[C@H](N)CC[C@@H]2C)cc2nc(-c3cc4cccc(C5CN(C(C)=O)C5)c4n3CC3CC3)n(C)c12` [Example 42, 1-(3-(2-(5-((2S,5R)-5-amino-2-methylpiperidine-1-carbonyl)-7-methoxy-1-methyl-1H-benzo[d]imidazol-2-yl)-1-(cyclopropylmethyl)-1H-indol-7-yl)azetidin-1-yl)ethan-1-one]: 141 nM; for `COc1cc(C(=O)N2C[C@H]3CC[C@@H]2[C@@H]3N)cc2nc(-c3cc4cccc(C5CC(NC(C)=O)C5)c4n3CC3CC3)n(C)c12` (stereo partly drawn) [Example 57, N-[3-(2-{5-[(1R,4R,7R)-7-amino-2-azabicyclo[2.2.1]heptane-2-carbonyl]-7-methoxy-1-methyl-1H-1,3-benzodiazol-2-yl}-1-(cyclopropylmethyl)-1H-indol-7-yl)cyclobutyl]acetamide]: 10 nM.
In the case of `COc1cc(C(=O)N2C[C@H]3CC[C@@H]2[C@@H]3N)cc2nc(-c3cc4cccc(CCCC(=O)O)c4n3CC3CC3)n(C)c12` [Example 60, 4-(2-{5-[(1R,4R,7R)-7-amino-2-azabicyclo[2.2.1]heptane-2-carbonyl]-7-methoxy-1-methyl-1H-1,3-benzodiazol-2-yl}-1-(cyclopropylmethyl)-1H-indol-7-yl)butanoic Acid], the IC50 was 108 nM.
The same measure, in the same setting: the same measure for `COc1cc(C(=O)N2C[C@H]3CC[C@@H]2[C@@H]3N)cc2nc(-c3cc4cccc(C5CC6(CNC6)C5)c4n3CC3CC3)n(C)c12` [Example 61, (1R,4R,7R)-2-[2-(7-{2-azaspiro[3.3]heptan-6-yl}-1-(cyclopropylmethyl)-1H-indol-2-yl)-7-methoxy-1-methyl-1H-1,3-benzodiazole-5-carbonyl]-2-azabicyclo[2.2.1]heptan-7-amine]: 34 nM; for `COc1cc(C(=O)N2C[C@H]3CC[C@@H]2[C@@H]3N)cc2nc(-c3cc4cccc(C5CC6(C5)CN(C(C)=O)C6)c4n3CC3CC3)n(C)c12` [Example 62, 1-[6-(2-{5-[(1R,4R,7R)-7-amino-2-azabicyclo[2.2.1]heptane-2-carbonyl]-7-methoxy-1-methyl-1H-1,3-benzodiazol-2-yl}-1-(cyclopropylmethyl)-1H-indol-7-yl)-2-azaspiro[3.3]heptan-2-yl]ethan-1-one]: 110 nM; for `COc1cc(C(=O)N2C[C@H]3CC[C@@H]2[C@@H]3N)cc2nc(-c3cc4cccc(CC5CN(C(C)=O)C5)c4n3CC3CC3)n(C)c12` [Example 63, 1-{3-[(2-{5-[(1R,4R,7R)-7-amino-2-azabicyclo[2.2.1]heptane-2-carbonyl]-7-methoxy-1-methyl-1H-1,3-benzodiazol-2-yl}-1-(cyclopropylmethyl)-H-indol-7-yl)methyl]azetidin-1-yl}ethan-1-one]: 62 nM.
On to `COc1cc(C(=O)N2C[C@H]3CC[C@@H]2[C@@H]3N)cc2nc(-c3cc4cccc(C5CN(S(C)(=O)=O)C5)c4n3CC3CC3)n(C)c12` [Example 64, (1R,4R,7R)-2-{2-[1-(cyclopropylmethyl)-7-(1-methanesulfonylazetidin-3-yl)-1H-indol-2-yl]-7-methoxy-1-methyl-1H-1,3-benzodiazole-5-carbonyl}-2-azabicyclo[2.2.1]heptan-7-amine], for which the 50% inhibitory concentration (IC50) came to 31 nM.
